pIC50: −log10 of the molar value.
Tested on: 349418-098-R-PDC complex spheroid viability
Experiment: Anticancer human tumor 349418-098-R-PDC patient-derived lung adenocarcinoma cell line growth inhibition [RAS]
Settings: for pIC50: curve of first compound; for viability, T/C: stronger effect = lower value; active = viability on the fitted dose curve at most 10% of control; inactive = the rest
In short: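 Multi-cell-type spheroids: tumor cells plus HUVEC endothelial cells and mesenchymal stem cells. RAS-pathway inhibitors were combined with targeted agents, each dosed in half-log steps down from clinical Cmax, or from 10 microM when Cmax was unknown.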

[1] = second compound 0.00316 µM, first compound 0.0316 µM
[2] = second compound 0.00316 µM, first compound 0.1 µM
[3] = second compound 0.00316 µM, first compound 0.316 µM
[4] = second compound 0.00316 µM, first compound 1 µM
[5] = second compound 0.00316 µM, first compound 3.16 µM
[6] = second compound 0.00316 µM, first compound 10 µM
[7] = second compound 0.01 µM, first compound 0.0316 µM
[8] = second compound 0.01 µM, first compound 0.1 µM
[9] = second compound 0.01 µM, first compound 0.316 µM
[10] = second compound 0.01 µM, first compound 1 µM
[11] = second compound 0.01 µM, first compound 3.16 µM
[12] = second compound 0.01 µM, first compound 10 µM
[13] = second compound 0.0316 µM, first compound 0.0316 µM
[14] = second compound 0.0316 µM, first compound 0.1 µM
[15] = second compound 0.0316 µM, first compound 0.316 µM
[16] = second compound 0.0316 µM, first compound 1 µM
[17] = second compound 0.0316 µM, first compound 3.16 µM
[18] = second compound 0.0316 µM, first compound 10 µM
[19] = second compound 0.1 µM, first compound 0.0316 µM
[20] = second compound 0.1 µM, first compound 0.1 µM
[21] = second compound 0.1 µM, first compound 0.316 µM
[22] = second compound 0.1 µM, first compound 1 µM
[23] = second compound 0.1 µM, first compound 3.16 µM
[24] = second compound 0.1 µM, first compound 10 µM
[25] = second compound 0.316 µM, first compound 0.0316 µM
[26] = second compound 0.316 µM, first compound 0.1 µM
[27] = second compound 0.316 µM, first compound 0.316 µM
[28] = second compound 0.316 µM, first compound 1 µM
[29] = second compound 0.316 µM, first compound 3.16 µM
[30] = second compound 0.316 µM, first compound 10 µM
[31] = second compound 1 µM, first compound 0.0316 µM
[32] = second compound 1 µM, first compound 0.1 µM
[33] = second compound 1 µM, first compound 0.316 µM
[34] = second compound 1 µM, first compound 1 µM
[35] = second compound 1 µM, first compound 3.16 µM
[36] = second compound 1 µM, first compound 10 µM
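Note: spheroids exposed to compound for seven days before viability readout.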

CC1(O)CCCC1n1c(=O)c(C(F)F)cc2cnc(NC3CCN(S(C)(=O)=O)CC3)nc21 (stereo unspecified) + C=CC(=O)N1CCN(c2nc(OCC3CCCN3C)nc3c(F)c(-c4nc(N)cc(C)c4C(F)(F)F)c(Cl)cc23)C(C)C1
7.27: pIC50 (second compound 1 µM)
7.11: pIC50 (second compound 0.00316 µM)
7.42: pIC50 (second compound 0.316 µM)
inactive: viability, T/C [1] 75.1% | viability, T/C [2] 43.2% | viability, T/C [3] 22.5% | viability, T/C [4] 17% | viability, T/C [5] 21.8% | viability, T/C [6] 4.51% | viability, T/C [7] 59.5% | viability, T/C [8] 52.6% | viability, T/C [9] 33.2% | viability, T/C [10] 17.8% | viability, T/C [11] 15.8% | viability, T/C [13] 74.9% | viability, T/C [14] 44.4% | viability, T/C [15] 27.2% | viability, T/C [16] 19.8% | viability, T/C [17] 24.7% | viability, T/C [18] 3.03% | viability, T/C [19] 64.8% | viability, T/C [20] 41% | viability, T/C [21] 18.2% | viability, T/C [22] 25.8% | viability, T/C [23] 24.2% | viability, T/C [24] 2.89% | viability, T/C [25] 52.6% | viability, T/C [26] 43.1% | viability, T/C [27] 20.6% | viability, T/C [28] 24.3% | viability, T/C [29] 18.1% | viability, T/C [31] 60.8% | viability, T/C [32] 36% | viability, T/C [33] 26.4% | viability, T/C [34] 25.4% | viability, T/C [35] 22.6% | viability, T/C [36] 4.16%
7.07: pIC50 (second compound 0.0316 µM)
7.21: pIC50 (second compound 0.1 µM)
6.99: pIC50 (second compound 0.01 µM)
active: viability, T/C [12] 3.59% | viability, T/C [30] 3.81%

CCN1CCN(Cc2ccc(Nc3ncc(F)c(-c4cc(F)c5nc(C)n(C(C)C)c5c4)n3)nc2)CC1 + C=CC(=O)N1CCN(c2nc(OCC3CCCN3C)nc3c(F)c(-c4nc(N)cc(C)c4C(F)(F)F)c(Cl)cc23)C(C)C1
7.63: pIC50 (second compound 0.01 µM)
7.68: pIC50 (second compound 0.316 µM)
7.95: pIC50 (second compound 0.1 µM)
7.85: pIC50 (second compound 1 µM)
7.52: pIC50 (second compound 0.0316 µM)
inactive: viability, T/C (second compound 0.00316 µM, first compound 0.00316 µM) 77.6% | viability, T/C (second compound 0.00316 µM, first compound 0.01 µM) 62.2% | viability, T/C [1] 35.9% | viability, T/C [2] 25.7% | viability, T/C [3] 20.9% | viability, T/C [4] 15.7% | viability, T/C (second compound 0.01 µM, first compound 0.00316 µM) 89.4% | viability, T/C (second compound 0.01 µM, first compound 0.01 µM) 71.3% | viability, T/C [7] 43.4% | viability, T/C [8] 22.1% | viability, T/C [9] 22.5% | viability, T/C [10] 17% | viability, T/C (second compound 0.0316 µM, first compound 0.00316 µM) 78.8% | viability, T/C (second compound 0.0316 µM, first compound 0.01 µM) 96.2% | viability, T/C [13] 48.4% | viability, T/C [14] 22.5% | viability, T/C [15] 21.6% | viability, T/C [16] 17.5% | viability, T/C (second compound 0.1 µM, first compound 0.00316 µM) 72.8% | viability, T/C (second compound 0.1 µM, first compound 0.01 µM) 51.2% | viability, T/C [19] 35.6% | viability, T/C [20] 20.6% | viability, T/C [21] 20.8% | viability, T/C [22] 17.4% | viability, T/C (second compound 0.316 µM, first compound 0.00316 µM) 82.8% | viability, T/C (second compound 0.316 µM, first compound 0.01 µM) 74% | viability, T/C [25] 35.2% | viability, T/C [26] 34.3% | viability, T/C [27] 25.2% | viability, T/C [28] 18.1% | viability, T/C (second compound 1 µM, first compound 0.00316 µM) 61.5% | viability, T/C (second compound 1 µM, first compound 0.01 µM) 49.1% | viability, T/C [31] 46.7% | viability, T/C [32] 29% | viability, T/C [33] 22.1% | viability, T/C [34] 19.1%
7.76: pIC50 (second compound 0.00316 µM)

C[C@@H](NC(=O)c1ncnc(N)c1Cl)c1ncc(C(=O)Nc2cc(C(F)(F)F)c(Cl)cn2)s1 + C=CC(=O)N1CCN(c2nc(OCC3CCCN3C)nc3c(F)c(-c4nc(N)cc(C)c4C(F)(F)F)c(Cl)cc23)C(C)C1
5.41: pIC50 (second compound 1 µM)
5.51: pIC50 (second compound 0.316 µM)
6.02: pIC50 (second compound 0.00316 µM)
5.69: pIC50 (second compound 0.0316 µM)
inactive: viability, T/C [1] 102% | viability, T/C [2] 124% | viability, T/C [3] 88.9% | viability, T/C [4] 50% | viability, T/C [5] 39% | viability, T/C [6] 32.6% | viability, T/C [7] 78.6% | viability, T/C [8] 115% | viability, T/C [9] 68.8% | viability, T/C [10] 59.1% | viability, T/C [11] 41.3% | viability, T/C [12] 31.3% | viability, T/C [13] 108% | viability, T/C [14] 113% | viability, T/C [15] 65.1% | viability, T/C [16] 62.8% | viability, T/C [17] 50.1% | viability, T/C [18] 29.6% | viability, T/C [19] 80.6% | viability, T/C [20] 106% | viability, T/C [21] 85.3% | viability, T/C [22] 60.9% | viability, T/C [23] 46.8% | viability, T/C [24] 41% | viability, T/C [25] 60.6% | viability, T/C [26] 113% | viability, T/C [27] 85.7% | viability, T/C [28] 67.1% | viability, T/C [29] 52.8% | viability, T/C [30] 31.2% | viability, T/C [31] 65.5% | viability, T/C [32] 111% | viability, T/C [33] 84.2% | viability, T/C [34] 64.1% | viability, T/C [35] 58.4% | viability, T/C [36] 30%
5.82: pIC50 (second compound 0.01 µM)
5.66: pIC50 (second compound 0.1 µM)
